Assay results published in patent EP3925949A1, “AZIDO COMPOUNDS AND METHOD FOR MONITORING ACID CERAMIDASE ACTIVITY IN INTACT CELLS USING THEM” (Consejo Superior de Investigaciones Científicas (CSIC), priority 2020, dated 2021).

Columns and labels:
[1] = system: mitochondria; experiment: Confocal co-localization of probe/CO-1 staining with Mitotracker; type: cell-based; settings: A375/+Dox, RBM5-177 probe, FB1 100 µM 24 h or SOCLAC 5 µM 1 h, independent treatments
Description: Cells were seeded at 1 × 10^5 cells/mL on glass-bottom plates and allowed to adhere for 24 h. For golgi staining, cells were incubated with 40 µL/well of CellLight Golgi-RFP BacMam 2.0 for 24 h. Medium was replaced with fresh medium containing RBM5-177, RBM5-019, RBM2-37 or RBM2-31 (5 µM final concentration) and cells were incubated for 20 min at 37 °C. After this time, the medium was replaced with fresh medium containing CO-1 (1 µM final concentration), and cells were incubated for 10 min. Then cells were washed 3 times with DMEM for 5 min at 37 °C, 75 nM LysoTracker Red DND-99 or 75 nM Mitotracker in phenol red-free DMEM was added to stain lysosomes or mitochondria, and cells were kept in the incubator for microscope analysis. Staining was viewed with a Zeiss LSM 880 confocal microscope or Leica TCS SP8-Hyvolution. Image analysis was performed using Fiji software.^[7] To measure the Manders's and Pearson's coefficients a threshold including organelles and discarding the background was set. Co-localization coefficients were measured using the JaCoP plugin (S. Bolte et al. J. Microsc. 2006, 224, 213-232) on the different stacks of images (at least n=4) with each stack containing 3-10 cells.

[2] = target: T1, alkaline ceramidases 1 (ACER1) (Homo sapiens, UniProt Q8TDN7); experiment: Hydrolysis of RBM5-177 by microsomes of ACER1 overexpressing cells, UPLC-HRMS; type: biochemical; settings: microsomes from ACER1 overexpressing cells, RBM5-177 5 µM, 30 min
T1 construct: expressed in transfected cells; host or cells: HeLa T-Rex ACER1-TET-ON, tetracycline-induced; microsomes
T1 sequence (Q8TDN7 1-264): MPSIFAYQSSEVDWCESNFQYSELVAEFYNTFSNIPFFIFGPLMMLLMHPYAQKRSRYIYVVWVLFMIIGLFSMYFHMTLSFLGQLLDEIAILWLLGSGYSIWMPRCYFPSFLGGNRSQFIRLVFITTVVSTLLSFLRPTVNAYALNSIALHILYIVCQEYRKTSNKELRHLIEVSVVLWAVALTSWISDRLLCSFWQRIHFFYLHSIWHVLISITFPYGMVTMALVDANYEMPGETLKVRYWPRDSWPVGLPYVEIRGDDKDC
Description: (§1) Cell lysates obtained from HeLa T-Rex ACER1-TET-ON, HeLa T-Rex ACER2-TET-ON and MEF5 overexpressing ACER3 cells were transferred to ultracentrifuge tubes and were spun at 100000 g for 1 h at 4°C. Pellets were resuspended in a 0.25 M saccharose solution and protein concentration was determined as specified below.
(§2) Cells were seeded at 5 × 10^5 cells/mL into 6 well plates (1 mL/well) and were allowed to adhere for 24 h. Medium was replaced with fresh medium containing RBM5-177, RBM5-019 or RBM2-37 (5 µM final concentration). After 30 min, medium was removed; cells were washed with 400 µL PBS and harvested with 400 µL Trypsin-EDTA and 600 µL of medium. NC recombinant enzyme, lysates from A375-AC overexpressing cells, MEF5 or microsomes from HeLa T-Rex ACER1-TET-ON and HeLa T-Rex […] activity buffer. Cell pellets were resuspended with 100 µL of H2O and mixed with 750 µL of methanol: chloroform, 2:1. Samples were heated at 48°C overnight and next day, 75 µL of 1 M KOH in methanol were added, followed by 2 h incubation at 37°C. Afterwards, the saponification was neutralised with 75 µL of 1 M acetic acid and solvent was removed using a Speed Vac Savant SPD131 DDA (Thermo Scientific). […]

[3] = target: T2, human recombinant neutral ceramidase (NC) (Homo sapiens, UniProt Q9NR71); experiment: Hydrolysis of RBM5-177 by recombinant NC, UPLC-HRMS; type: biochemical; settings: RBM5-177 5 µM, 30 min
T2 construct: purchased R&D Systems
Description: as §2, with “Scientific). Sphingolipid extracts, fortified with internal standards (N-dodecanoylsphingosine, N-dodecanoylglucosylsphingosine, N-dodecanoylsphingosylphosphorylcoline and C17-sphinganine 0.2 nmol each) were solubilised in 150 µL of methanol. Samples were then centrifuged at 9,300 g for 3 min and 130 µL of the supernatant were injected to a Waters Aquity UPLC system connected to a Waters LCT Premier Orthogonal Accelerated Time of Flight Mass Spectrometer (Waters,Milford, MA, USA) operated in positive electrospray ionisation mode.” for “Scientific).”

[4] = target: T3, ACER3 (Mus musculus, UniProt Q9D099); experiment: Hydrolysis of RBM5-177 by microsomes of ACER3 overexpressing cells, UPLC-HRMS; type: biochemical; settings: microsomes from ACER3 overexpressing cells, RBM5-177 5 µM, 30 min
T3 construct: endogenous in cells; host or cells: MEF5 cells (NC-deficient)
T3 sequence (Q9D099 1-267): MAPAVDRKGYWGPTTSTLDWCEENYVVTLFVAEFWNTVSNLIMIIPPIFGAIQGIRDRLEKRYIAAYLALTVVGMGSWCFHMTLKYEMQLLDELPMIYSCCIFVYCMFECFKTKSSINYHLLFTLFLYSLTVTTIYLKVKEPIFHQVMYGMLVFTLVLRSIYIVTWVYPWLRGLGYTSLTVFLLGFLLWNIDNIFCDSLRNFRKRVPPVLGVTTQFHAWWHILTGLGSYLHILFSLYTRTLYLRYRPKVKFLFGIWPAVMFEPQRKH
Description: as §1, §2

[5] = target: T4, ACER2 (Homo sapiens, UniProt Q5QJU3); experiment: Hydrolysis of RBM5-177 by microsomes of ACER2 overexpressing cells, UPLC-HRMS; type: biochemical; settings: microsomes from ACER2 overexpressing cells, RBM5-177 5 µM, 30 min
T4 construct: expressed in transfected cells; host or cells: HeLa T-Rex ACER2-TET-ON, tetracycline-induced; microsomes
Description: as §1, §2

T2 sequence (Q9NR71 whole entry): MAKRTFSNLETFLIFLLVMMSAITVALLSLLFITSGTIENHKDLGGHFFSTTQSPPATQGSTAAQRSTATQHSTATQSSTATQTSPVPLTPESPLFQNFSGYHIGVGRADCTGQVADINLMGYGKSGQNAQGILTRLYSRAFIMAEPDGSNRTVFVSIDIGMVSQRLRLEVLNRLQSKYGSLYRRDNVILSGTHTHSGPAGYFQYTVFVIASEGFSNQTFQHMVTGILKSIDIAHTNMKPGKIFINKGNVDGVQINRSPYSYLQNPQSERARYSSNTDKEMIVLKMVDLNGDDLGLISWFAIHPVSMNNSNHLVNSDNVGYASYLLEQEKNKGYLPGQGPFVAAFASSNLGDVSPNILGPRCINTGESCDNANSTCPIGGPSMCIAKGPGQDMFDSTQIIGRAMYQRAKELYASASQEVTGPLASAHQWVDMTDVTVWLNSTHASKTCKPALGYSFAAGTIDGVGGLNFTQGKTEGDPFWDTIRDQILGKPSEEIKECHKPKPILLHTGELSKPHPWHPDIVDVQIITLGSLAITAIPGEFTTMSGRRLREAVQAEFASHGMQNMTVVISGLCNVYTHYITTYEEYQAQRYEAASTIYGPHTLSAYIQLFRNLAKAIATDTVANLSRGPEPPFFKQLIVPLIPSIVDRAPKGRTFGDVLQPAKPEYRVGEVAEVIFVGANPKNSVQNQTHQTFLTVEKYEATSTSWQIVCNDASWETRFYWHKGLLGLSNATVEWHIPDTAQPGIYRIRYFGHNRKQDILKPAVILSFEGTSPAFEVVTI

Compound | effect on mitochondria labelling [1] | RBM5-19 formation (hydrolysis as substrate) [2] | RBM5-19 formation (hydrolysis as substrate) [3] | RBM5-19 formation (hydrolysis as substrate) [4] | RBM5-19 formation (hydrolysis as substrate) [5]
CCCCCCCCCCCCC/C=C/[C@@H](O)[C@H](CO)NC(=O)CCl [SOCLAC] | mitochondria labelling was precluded | – | – | – | –
CCCCCCCC(=O)N[C@@H](C)[C@H](O)CCCCCCCCCCCCN=[N+]=[N-] [RBM5-177, N-((2S,3R)-15-azido-3-hydroxypentadecan-2-yl)octanamide] | – | transformed into the free amine only by AC | transformed into the free amine only by AC | transformed into the free amine only by AC | transformed into the free amine only by AC
